In patent US11254987B2, “PD-L1 promoter methylation in cancer” (Genentech, Inc., priority 2015, dated 2022):

Assays:
Format in all cases: cell-based, human
[1] = test system: STAT3 near CpG1 in the PD-L1 promoter; assay: ChIP-Seq: binding of STAT3 near CpG1 in the PD-L1 promoter; conditions: H358, methylation at PD-L1 promoter LOW; IFNγ stimulation
Experimental: (§1) NSCLC cell lines were grown to the proper confluency, and treated cells were fixed with 1% formaldehyde for 15 min and quenched with 0.125 M glycine. Chromatin was isolated by the addition of lysis buffer and disruption with a Dounce homogenizer. Lysates were sonicated, and the DNA was sheared to an average length of 300-500 bp. Genomic DNA (Input) was prepared by treating aliquots of chromatin with RNase, proteinase K, and heat for de-crosslinking. Treatment was followed by ethanol precipitation. Pellets of genomic DNA were resuspended and the resulting DNA was quantified on a NanoDrop spectrophotometer. Extrapolation to the original chromatin volume allowed quantitation of the total chromatin yield.
(§2) An aliquot of chromatin (30 μg) was pre-cleared with protein A agarose beads (Invitrogen). […]
(§3) Illumina sequencing libraries were prepared from the ChIP and Input DNAs by the standard consecutive enzymatic steps of end-polishing, dA-addition, and adaptor ligation. After a final PCR amplification step, the resulting DNA libraries were quantified and sequenced on HiSeq 2500 or NexSeq 500. Sequences (50 nt reads, single end or 75 nt reads, single end) were aligned to the human genome (hg19) using the BWA algorithm. […] Peak locations were determined using the MACS algorithm (v1.4.2.) with a cutoff of pvalue=1×10^−7. […]

[2] = test system: STAT1 near CpG1 in the PD-L1 promoter; assay: ChIP-Seq: binding of STAT1 near CpG1 in the PD-L1 promoter; conditions: H358, methylation at PD-L1 promoter LOW; IFNγ stimulation
Experimental: as §1, §2, §3

STAT1 = assay: Western blot of IFNg/JAK/STAT signaling pathway: STAT1
Experimental: (§4) Protein lysates were generated using Cell Extraction Buffer (Life Technologies), supplemented with SigmaFAST Protease Inhibitor Tablets (Sigma) and Phosphatase Inhibitor Cocktail 1 and 2 (Sigma). Lysates centrifuged at 20,000×g for 10 minutes at 4° C., and the supernatants were then removed for analysis by Western Blot (WB). Samples were treated with NuPage Novex LDS and SRA Buffers (Life Technologies) and loaded onto a Bis-Tris Gel (Life Technologies) alongside SeeBlue Plus2 molecular weight standard (Life Technologies). Gels were transferred to nitrocellulose membranes using the iBlot system (Life Technologies) and then blocked with Odyssey Blocking Buffer (LI-COR) for 1 hour at room temperature. Gels were stained with antibodies against human PD-L1 (in-house), β-actin (Sigma); p/t STAT1, p-STAT3-Y705, p-STAT3-5727, and t-STAT3 (all Cell Signaling) diluted in Odyssey Blocking Buffer+0.01% Tween-20. Primary antibodies were detected secondary antibodies from LI-COR in Odyssey Blocking Buffer+0.01% Tween-20+0.001% SDS and analyzed on the Odyssey CLx system (LI-COR).
Next, western blots were performed to determine whether the IFNg/JAK/STAT signaling pathway plays a role in the IFNg-mediated induction of PD-L1 transcript and protein levels in A427, H322T, H292, and H358. […]

STAT3 = assay: Western blot of IFNg/JAK/STAT signaling pathway: STAT3
Experimental: as §4
Next, western blots were performed to determine whether the IFNg/JAK/STAT signaling pathway plays a role in the IFNg-mediated induction of PD-L1 transcript and protein levels in A427, H322T, H292, and H358. Briefly, cells from A427, H322T, H292, and H358 were either (a) untreated; (b) treated with IFNg for 30 minutes; or (c) treated with IFNg for 24 hours. The cells were then processed into protein lysates and run out on gels, blotted and probed with the following antibodies: (1) anti-phospho-STAT1; (2) anti-total-STAT1: (3) anti-phospho-STAT3-Y705; (4) anti-phospho-STAT3-S727; (5) anti-total-STAT3; and (6) β-actin (loading control). […] STAT3 was further activated by the mTOR and MAPK pathways at S727.
Next, the relationship between PD-L1 promoter methylation and the IFNg/JAK/STAT pathway was investigated in A427 and H358 using siRNA. […] In order to determine which STAT was most crucial for PD-L1 expression in the context of methylation, cells from each cell line were dosed with (1) no siRNA; (2) Scrambled control; (3) siSTAT1; (4) siSTAT3; (5) IFNg, or (6) siSTAT1, siSTAT3, and IFNg.

[3] = A427 following stimulation with IFNg (FIG. 4C)

“interferon gamma [IFNg, interferon gamma, used at 1 ng/mL to stimulate cells]” was tested, and the “Binding (chIP STAT3)” value [1] was “bound and YES”, the “Binding (chIP STAT1)” value [2] was “bind and YES” and the “induction of activated STAT1” value (STAT1; [3]) was “strong induction”. For the same substance, the p-STAT1 activation (STAT1; all four cell lines (A427, H322T, H292, H358) following IFNg stimulation) was “robust”, the “induction of activated STAT3” value (STAT3; [3]) was “strong induction” and the p-STAT3-Y705 (STAT3; H292, following 30 min IFNg treatment) was “constitutively activated”. The p-STAT3-5727 activation (STAT3; H358, before and after stimulation, early and late timepoints) was “did not show p-STAT3-5727 activation”, the p-STAT3-Y705 (STAT3; H358, by 24 hrs following IFNg stimulation) was “lost” and the “Activation of the JAK/STAT signaling pathway” value (STAT3; all cell lines except H358, by 24 hrs IFNg) was “observed”.
